Laboratory results taken from US9422267B2, “Fused pyrimidine compounds and use thereof” (Medivation Technologies, Inc., priority 2012, dated 2016).
Each block holds one compound with its values, some of them ahead of it.

How the values were obtained:
Mer = biological target: T1, Mer (Homo sapiens, UniProt Q12866); assay: Caliper kinase profiling: Mer; assay type: biochemical; conditions: for inhibition at 0.01 µM: 10 nM, read-out: Average % Inh @ 10 nM
T1 construct: purchased Caliper LifeSciences (ProfilerPro Kinase Selectivity Assay Kits)
T1 sequence (Q12866 21-999): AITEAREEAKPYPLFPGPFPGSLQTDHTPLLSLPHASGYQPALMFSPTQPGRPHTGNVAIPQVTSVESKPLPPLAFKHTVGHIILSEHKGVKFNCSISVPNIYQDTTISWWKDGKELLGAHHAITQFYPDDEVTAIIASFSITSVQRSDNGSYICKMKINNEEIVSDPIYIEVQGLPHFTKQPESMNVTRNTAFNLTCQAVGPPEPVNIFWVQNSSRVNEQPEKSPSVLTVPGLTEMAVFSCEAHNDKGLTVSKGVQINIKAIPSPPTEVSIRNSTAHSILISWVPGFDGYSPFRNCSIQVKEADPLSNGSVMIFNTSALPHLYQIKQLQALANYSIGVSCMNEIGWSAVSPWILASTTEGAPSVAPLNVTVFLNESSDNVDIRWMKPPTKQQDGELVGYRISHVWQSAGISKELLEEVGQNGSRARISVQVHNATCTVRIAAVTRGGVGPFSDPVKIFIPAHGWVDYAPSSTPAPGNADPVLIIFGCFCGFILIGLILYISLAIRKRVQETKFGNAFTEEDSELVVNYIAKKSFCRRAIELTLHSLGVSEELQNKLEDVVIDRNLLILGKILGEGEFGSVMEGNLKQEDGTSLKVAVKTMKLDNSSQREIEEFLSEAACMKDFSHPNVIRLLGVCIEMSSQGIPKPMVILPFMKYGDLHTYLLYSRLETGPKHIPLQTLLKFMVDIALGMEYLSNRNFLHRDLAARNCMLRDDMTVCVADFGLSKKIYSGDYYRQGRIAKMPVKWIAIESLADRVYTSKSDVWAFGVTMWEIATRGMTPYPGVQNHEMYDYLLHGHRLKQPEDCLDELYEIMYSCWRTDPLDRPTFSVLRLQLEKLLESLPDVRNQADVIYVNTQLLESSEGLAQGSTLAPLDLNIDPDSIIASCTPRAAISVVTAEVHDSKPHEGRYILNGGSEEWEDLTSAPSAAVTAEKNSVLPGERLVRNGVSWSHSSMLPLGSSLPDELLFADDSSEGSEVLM

Abl(T315I) = biological target: T2, Abl(T315I) (Homo sapiens, UniProt P00519, T315I); assay: Caliper kinase profiling: Abl(T315I); assay type: biochemical
T2 construct: purchased Caliper LifeSciences (ProfilerPro Kinase Selectivity Assay Kits)

ABL1(G250E) = biological target: T3, ABL1(G250E) (Homo sapiens, UniProt P00519, G250E); assay: Caliper kinase profiling: ABL1(G250E); assay type: biochemical; conditions: read-out: Average % Inh @ 1 μM
T3 construct: purchased Caliper LifeSciences (ProfilerPro Kinase Selectivity Assay Kits)

ABL1(Y253F) = biological target: T4, ABL1(Y253F) (Homo sapiens, UniProt P00519, Y253F); assay: Caliper kinase profiling: ABL1(Y253F); assay type: biochemical; conditions: read-out: Average % Inh @ 1 μM
T4 construct: purchased Caliper LifeSciences (ProfilerPro Kinase Selectivity Assay Kits)

AMPK = assay: Caliper kinase profiling: AMPK; assay type: biochemical
Description: The compound was tested at concentrations of 1.0×10^−8 and 1.0×10^−9 M in the RapidKinase192™ panel in duplicate. […] The screening was performed using the Caliper EZReader2, a 4-sipper LabChip, and ProfilerPro Kinase Selectivity Assay Kits 1 and 2. The assay measures the conversion of a fluorescent peptide substrate to a phosphorylated product. Briefly, the reaction mixture was introduced through a capillary sipper onto the microfluidic chip, where the substrate and product were electrophoretically separated and detected by laser-induced fluorescence. The time-dependent fluorescence signal indicates the extent of the reaction.

DCAMKL2 = DCAMKL2 (Homo sapiens, UniProt Q8N568); assay: Caliper kinase profiling: DCAMKL2; assay type: biochemical; conditions: DCAMKL2, 1 μM; read-out: Average % Inh @ 1 μM
EPHA2 = EPHA2 (Homo sapiens, UniProt P29317); assay: Caliper kinase profiling: EPHA2; assay type: biochemical; conditions: EPHA2, 1 μM; read-out: Average % Inh @ 1 μM
EPHA3 = EPHA3 (Homo sapiens, UniProt P29320); assay: Caliper kinase profiling: EPHA3; assay type: biochemical; conditions: EPHA3, 1 μM; read-out: Average % Inh @ 1 μM
EPHB4 = EPHB4 (Homo sapiens, UniProt P54760); assay: Caliper kinase profiling: EPHB4; assay type: biochemical; conditions: EPHB4, 1 μM; read-out: Average % Inh @ 1 μM
Fer = Fer (Homo sapiens, UniProt P16591); assay: Caliper kinase profiling: Fer; assay type: biochemical
FES = FES (Homo sapiens, UniProt P07332); assay: Caliper kinase profiling: FES; assay type: biochemical; conditions: read-out: Average % Inh @ 1 μM
FGFR3 = FGFR3 (Homo sapiens, UniProt P22607); assay: Caliper kinase profiling: FGFR3; assay type: biochemical; conditions: FGFR3, 1 μM; read-out: Average % Inh @ 1 μM
FGFR3(K650E) = FGFR3(K650E) (Homo sapiens, UniProt P22607, K650E); assay: Caliper kinase profiling: FGFR3(K650E); assay type: biochemical; conditions: read-out: Average % Inh @ 1 μM
FLT3 = FLT3 (Homo sapiens, UniProt P36888); assay: Caliper kinase profiling: FLT3; assay type: biochemical; conditions: FLT3, 1 μM; read-out: Average % Inh @ 1 μM
LCK = LCK (Homo sapiens, UniProt P06239); assay: Caliper kinase profiling: LCK; assay type: biochemical
LTK = LTK (Homo sapiens, UniProt P29376); assay: Caliper kinase profiling: LTK; assay type: biochemical; conditions: read-out: Average % Inh @ 1 μM
LYNB = LYNB (Homo sapiens, UniProt P07948); assay: Caliper kinase profiling: LYNB; assay type: biochemical
MST1R = MST1R (Homo sapiens, UniProt Q04912); assay: Caliper kinase profiling: MST1R; assay type: biochemical; conditions: read-out: Average % Inh @ 1 μM
ZR-75-1 = assay: Cell Titer-Glo cell viability: ZR-75-1; assay type: cell-based; conditions: Homo sapiens; ZR-75-1, breast cancer; 72 h
Description: Compound nos. […] This panel of cell lines includes an ER− breast carcinoma, primary breast ductal carcinoma, prostate adenocarcinoma, mammary adenocarcinoma, mammary ductal carcinoma, mammary ductal carcinoma, ovary adenocarcinoma, ER+ breast carcinoma, ER-HER2+ mammary ductal carcinoma and an ER+ mammary ductal carcinoma, respectively.
(§1) This assay quantitates the ATP present in order to determine the number of viable cells in culture. Briefly, the compounds were incubated with the cells for 72 h, followed by cell lysis. The resulting luminescent signal is proportional to the amount of ATP present and, therefore, directly proportional to the number of cells present in culture.

ASPC-1 = assay: Cell viability: pancreatic cancer cell line ASPC-1; assay type: cell-based; conditions: Homo sapiens, ASPC1; ASPC-1 pancreatic cancer cell line
Description: as §1
Analogous studies utilizing pancreatic cancer cell lines such as ASPC-1 and PANC-1 can be performed with compounds of the invention.

[1] = 100 nM, read-out: Average % Inh @ 100 nM
[2] = 1 μM, read-out: Average % Inh @ 1 μM
[3] = 10 nM, read-out: Average % Inh @ 10 nM

Fer, sequence (P16591 whole entry): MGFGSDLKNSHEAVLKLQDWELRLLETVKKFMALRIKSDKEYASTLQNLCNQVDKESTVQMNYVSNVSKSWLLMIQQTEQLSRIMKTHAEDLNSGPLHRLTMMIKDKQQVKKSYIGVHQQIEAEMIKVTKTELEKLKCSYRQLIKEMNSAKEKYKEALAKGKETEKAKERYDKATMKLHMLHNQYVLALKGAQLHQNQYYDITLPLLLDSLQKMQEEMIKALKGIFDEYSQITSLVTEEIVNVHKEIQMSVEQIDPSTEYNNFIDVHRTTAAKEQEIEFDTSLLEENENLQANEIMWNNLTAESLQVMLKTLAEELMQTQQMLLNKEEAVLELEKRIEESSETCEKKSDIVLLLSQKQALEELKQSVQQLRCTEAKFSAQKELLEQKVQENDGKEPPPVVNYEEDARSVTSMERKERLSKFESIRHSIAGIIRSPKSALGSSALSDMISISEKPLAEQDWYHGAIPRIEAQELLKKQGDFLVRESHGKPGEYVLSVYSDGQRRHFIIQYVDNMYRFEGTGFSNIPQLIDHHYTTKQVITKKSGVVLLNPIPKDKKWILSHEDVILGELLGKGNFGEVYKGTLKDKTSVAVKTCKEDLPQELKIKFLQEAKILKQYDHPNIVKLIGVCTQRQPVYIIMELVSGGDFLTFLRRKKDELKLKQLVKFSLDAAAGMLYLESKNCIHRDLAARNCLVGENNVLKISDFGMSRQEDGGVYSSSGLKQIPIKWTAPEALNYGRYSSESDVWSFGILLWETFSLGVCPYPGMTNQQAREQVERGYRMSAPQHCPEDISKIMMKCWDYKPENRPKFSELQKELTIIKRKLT
LCK, sequence (P06239 whole entry): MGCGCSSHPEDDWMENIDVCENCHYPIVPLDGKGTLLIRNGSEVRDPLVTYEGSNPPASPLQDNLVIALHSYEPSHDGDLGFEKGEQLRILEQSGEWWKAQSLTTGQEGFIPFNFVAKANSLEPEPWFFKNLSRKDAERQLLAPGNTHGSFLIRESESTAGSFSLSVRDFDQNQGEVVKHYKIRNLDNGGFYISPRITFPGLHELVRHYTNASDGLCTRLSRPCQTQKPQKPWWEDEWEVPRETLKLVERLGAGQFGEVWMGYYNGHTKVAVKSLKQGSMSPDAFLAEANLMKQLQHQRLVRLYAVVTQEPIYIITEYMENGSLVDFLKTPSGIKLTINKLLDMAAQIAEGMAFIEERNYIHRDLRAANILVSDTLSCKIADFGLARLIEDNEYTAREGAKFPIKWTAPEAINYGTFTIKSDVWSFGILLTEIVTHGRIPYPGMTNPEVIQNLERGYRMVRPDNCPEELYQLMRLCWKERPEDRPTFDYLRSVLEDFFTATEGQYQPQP
LYNB, sequence (P07948 1-491 isoform P07948-2): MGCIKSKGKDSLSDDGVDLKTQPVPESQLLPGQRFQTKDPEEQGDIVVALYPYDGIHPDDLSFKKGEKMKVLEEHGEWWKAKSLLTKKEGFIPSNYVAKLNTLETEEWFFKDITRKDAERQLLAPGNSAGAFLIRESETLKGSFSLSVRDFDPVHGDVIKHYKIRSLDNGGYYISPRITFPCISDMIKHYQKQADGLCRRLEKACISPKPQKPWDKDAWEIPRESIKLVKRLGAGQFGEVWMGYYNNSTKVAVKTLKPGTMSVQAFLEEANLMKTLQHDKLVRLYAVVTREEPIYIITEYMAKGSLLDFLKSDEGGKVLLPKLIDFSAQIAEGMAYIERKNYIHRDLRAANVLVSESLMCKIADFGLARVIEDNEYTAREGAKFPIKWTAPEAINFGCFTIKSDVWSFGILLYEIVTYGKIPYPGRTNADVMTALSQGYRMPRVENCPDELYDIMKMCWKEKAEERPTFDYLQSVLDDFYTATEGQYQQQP
EPHA2, sequence (P29317 24-976): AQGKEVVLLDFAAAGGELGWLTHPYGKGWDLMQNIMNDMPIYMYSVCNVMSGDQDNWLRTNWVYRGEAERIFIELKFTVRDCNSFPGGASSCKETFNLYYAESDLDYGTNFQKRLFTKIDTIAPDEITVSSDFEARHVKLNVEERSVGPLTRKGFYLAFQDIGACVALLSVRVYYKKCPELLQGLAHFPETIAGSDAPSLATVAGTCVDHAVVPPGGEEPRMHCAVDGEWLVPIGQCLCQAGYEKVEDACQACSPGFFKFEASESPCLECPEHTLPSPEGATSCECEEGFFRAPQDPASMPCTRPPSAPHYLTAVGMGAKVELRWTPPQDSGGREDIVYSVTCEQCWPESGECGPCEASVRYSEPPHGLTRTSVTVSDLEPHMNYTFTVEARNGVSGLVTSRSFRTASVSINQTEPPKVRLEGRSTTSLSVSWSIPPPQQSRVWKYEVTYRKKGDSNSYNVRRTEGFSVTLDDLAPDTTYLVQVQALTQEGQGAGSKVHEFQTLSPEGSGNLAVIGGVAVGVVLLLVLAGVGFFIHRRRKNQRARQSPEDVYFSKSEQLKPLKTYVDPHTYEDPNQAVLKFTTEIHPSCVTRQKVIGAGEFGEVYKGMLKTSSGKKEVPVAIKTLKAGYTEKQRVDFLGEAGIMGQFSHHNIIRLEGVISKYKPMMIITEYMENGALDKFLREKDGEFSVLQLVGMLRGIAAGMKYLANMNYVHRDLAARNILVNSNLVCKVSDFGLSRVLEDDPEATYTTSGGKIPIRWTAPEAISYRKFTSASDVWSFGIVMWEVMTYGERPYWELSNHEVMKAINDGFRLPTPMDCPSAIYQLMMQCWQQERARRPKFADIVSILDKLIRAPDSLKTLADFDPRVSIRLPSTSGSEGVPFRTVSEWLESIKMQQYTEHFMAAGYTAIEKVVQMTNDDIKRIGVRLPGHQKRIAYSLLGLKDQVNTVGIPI
FLT3, sequence (P36888 27-993): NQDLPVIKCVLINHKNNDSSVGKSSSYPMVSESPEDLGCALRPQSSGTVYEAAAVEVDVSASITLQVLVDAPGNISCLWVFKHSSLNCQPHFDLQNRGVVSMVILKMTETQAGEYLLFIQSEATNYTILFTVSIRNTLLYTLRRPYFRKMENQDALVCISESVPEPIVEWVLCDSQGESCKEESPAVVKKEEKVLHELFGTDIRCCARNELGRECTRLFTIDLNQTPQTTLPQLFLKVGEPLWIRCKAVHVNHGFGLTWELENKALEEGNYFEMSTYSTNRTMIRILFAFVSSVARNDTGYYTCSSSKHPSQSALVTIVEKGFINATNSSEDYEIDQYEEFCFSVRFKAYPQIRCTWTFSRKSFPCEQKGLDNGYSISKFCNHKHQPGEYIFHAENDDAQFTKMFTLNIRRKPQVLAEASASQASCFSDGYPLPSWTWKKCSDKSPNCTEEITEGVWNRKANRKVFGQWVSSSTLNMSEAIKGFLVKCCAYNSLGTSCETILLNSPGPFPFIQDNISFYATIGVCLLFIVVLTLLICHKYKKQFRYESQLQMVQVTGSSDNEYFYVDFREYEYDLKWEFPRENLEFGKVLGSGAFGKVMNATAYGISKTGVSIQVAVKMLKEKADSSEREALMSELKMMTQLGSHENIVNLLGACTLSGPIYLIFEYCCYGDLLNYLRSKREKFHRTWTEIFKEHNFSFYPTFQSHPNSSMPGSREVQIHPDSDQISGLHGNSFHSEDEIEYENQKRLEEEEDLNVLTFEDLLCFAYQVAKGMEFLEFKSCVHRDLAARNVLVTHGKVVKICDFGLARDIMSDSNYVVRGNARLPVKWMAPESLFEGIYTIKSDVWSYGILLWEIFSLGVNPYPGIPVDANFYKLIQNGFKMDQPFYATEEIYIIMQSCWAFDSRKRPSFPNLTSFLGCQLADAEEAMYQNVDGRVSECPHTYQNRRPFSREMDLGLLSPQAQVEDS
FGFR3, sequence (P22607 23-806): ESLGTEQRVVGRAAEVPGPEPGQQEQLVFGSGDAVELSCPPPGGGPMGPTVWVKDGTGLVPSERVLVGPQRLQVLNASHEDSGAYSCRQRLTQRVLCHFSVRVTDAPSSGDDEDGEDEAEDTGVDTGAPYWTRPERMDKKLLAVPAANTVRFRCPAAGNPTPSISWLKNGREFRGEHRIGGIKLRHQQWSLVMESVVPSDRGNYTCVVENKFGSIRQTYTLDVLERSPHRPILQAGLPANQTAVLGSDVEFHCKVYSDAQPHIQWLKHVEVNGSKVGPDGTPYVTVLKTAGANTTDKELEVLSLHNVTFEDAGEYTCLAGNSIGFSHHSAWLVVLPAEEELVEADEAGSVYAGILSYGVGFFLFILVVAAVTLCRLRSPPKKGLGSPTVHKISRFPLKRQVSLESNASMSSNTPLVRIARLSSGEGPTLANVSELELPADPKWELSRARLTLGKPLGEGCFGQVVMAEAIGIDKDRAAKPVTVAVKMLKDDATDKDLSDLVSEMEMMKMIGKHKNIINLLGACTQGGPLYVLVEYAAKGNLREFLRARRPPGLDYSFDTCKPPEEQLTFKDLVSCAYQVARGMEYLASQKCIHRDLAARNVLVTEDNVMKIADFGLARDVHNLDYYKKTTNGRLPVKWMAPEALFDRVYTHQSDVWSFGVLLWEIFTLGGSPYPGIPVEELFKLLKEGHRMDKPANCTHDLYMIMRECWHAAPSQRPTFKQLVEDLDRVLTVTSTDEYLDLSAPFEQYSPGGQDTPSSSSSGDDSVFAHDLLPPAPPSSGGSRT
FGFR3(K650E), sequence (P22607 23-806 K650E): as the sequence (P22607 23-806) above, with K628E counted along it

inhibition at 0.01 µM (Mer): 40 to 59%
inhibition at 0.1 µM (Mer; [1]): > 60%
inhibition at 1 µM (Mer; [2]): > 60%
inhibition at 0.01 µM (Abl(T315I); [3]): < 39%
inhibition at 0.1 µM (Abl(T315I); [1]): < 39%
inhibition at 1 µM (Abl(T315I); [2]): > 60%
inhibition at 1 µM (ABL1(G250E)): > 60%
inhibition at 1 µM (ABL1(Y253F)): 40 to 59%
Average % Inh @ 10 nM (AMPK; 10 nM): + (+=Low)
Average % Inh @ 100 nM (AMPK; 100 nM): ++ (++=Med)
Average % Inh @ 1 μM (AMPK; 1 μM): +++ (+++=High)
inhibition at 1 µM (DCAMKL2): > 60%
inhibition at 1 µM (EPHA2): > 60%
inhibition at 1 µM (EPHA3): 40 to 59%
inhibition at 1 µM (EPHB4): 40 to 59%
inhibition at 0.01 µM (Fer; [3]): < 39%
inhibition at 0.1 µM (Fer; [1]): > 60%
inhibition at 1 µM (Fer; [2]): > 60%
inhibition at 1 µM (FES): 40 to 59%
inhibition at 1 µM (FGFR3): > 60%
inhibition at 1 µM (FGFR3(K650E)): > 60%
inhibition at 1 µM (FLT3): 40 to 59%
inhibition at 0.01 µM (LCK; [3]): < 39%
inhibition at 0.1 µM (LCK; [1]): < 39%
inhibition at 1 µM (LCK; [2]): > 60%
inhibition at 1 µM (LTK): > 60%
inhibition at 0.01 µM (LYNB; [3]): < 39%
inhibition at 0.1 µM (LYNB; [1]): 40 to 59%
inhibition at 1 µM (LYNB; [2]): > 60%
inhibition at 1 µM (MST1R): > 60%
SMILES: O=C(Nc1ccc(F)nc1)C1CCCN1c1nc2c(c(Nc3cc(C4CC4)[nH]n3)n1)CCC2 (single isomer, unassigned) [Compound 2b, 1-(4-(5-cyclopropyl-1H-pyrazol-3-ylamino)-6,7-dihydro-5H-cyclopenta[d]pyrimidin-2-yl)-N-(6-fluoropyridin-3-yl)pyrrolidine-2-carboxamide]

inhibition at 0.001 µM (Mer; 1 nM, read-out: Average % Inh @ 1 nM): < 39%
inhibition at 0.01 µM (Mer): > 60%
IC50 (Mer; 8 concentrations 3.0×10^−7 to 1.0×10^−10 M): 3.84 nM
IC50 (ASPC-1): 195 nM
SMILES: CC(C)c1cc(Nc2nc(N3CCCC3C(=O)Nc3ccc(F)nc3)nc3c2CCC3)n[nH]1 (single isomer, unassigned) [Compound 8b]
IC50 (ZR-75-1): < 100 µM
